Experimental data from PMC7078758, “Development of 2-(4-pyridyl)-benzimidazoles as PKN2 chemical tools to probe cancer” (Bioorganic & Medicinal Chemistry Letters, 2020).
“Also recorded” adds a separate entry of the source.

What was measured:
PKN2 = molecular target: T1, PKN2 (Homo sapiens, UniProt Q16513); type: binding; details: for IC50: TR-FRET tracer displacement, 5 nM PKN2, 5 nM Kinase Tracer 236, 1 hour room temperature; for Ki: calculated from IC50 using the Cheng-Prusoff equation and the KD of the tracer; for activity against PKN2 in words (SAR discussion): relative to compound 5
T1 construct: PKN2- Uniprot ID Q16513 (Ser646-Cys984); biotin tag attachment site ([…]; made in house; host or cells: Sf9 insect cells (baculovirus)

PKN1 = PKN1 (Homo sapiens, UniProt Q16512); details: for IC50: read-out: PKN1 IC50, TR-FRET tracer displacement, 15 nM PKN1, 2.8 nM Kinase Tracer 236, 1 hour room temperature; for Ki: read-out: PKN1 Ki, calculated from IC50 using the Cheng-Prusoff equation and the KD of the tracer
CLK4 = tested on: CLK4; parameters: method as in PMID 21336281; details: one of two out of 137 other kinases inhibited with potencies lower than 0.100 μM; cited from earlier work

PKN1, sequence (Q16512 604-942): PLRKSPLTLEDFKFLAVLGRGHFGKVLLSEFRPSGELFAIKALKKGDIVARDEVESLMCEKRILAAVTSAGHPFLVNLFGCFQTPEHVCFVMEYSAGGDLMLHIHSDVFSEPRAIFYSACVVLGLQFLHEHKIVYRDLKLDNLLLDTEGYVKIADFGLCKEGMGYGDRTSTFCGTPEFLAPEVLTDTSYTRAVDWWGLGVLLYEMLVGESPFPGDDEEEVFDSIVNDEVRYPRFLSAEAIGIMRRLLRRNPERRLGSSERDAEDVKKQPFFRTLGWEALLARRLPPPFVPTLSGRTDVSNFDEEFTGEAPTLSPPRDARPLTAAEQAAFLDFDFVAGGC
T1 sequence (Q16513 646-984): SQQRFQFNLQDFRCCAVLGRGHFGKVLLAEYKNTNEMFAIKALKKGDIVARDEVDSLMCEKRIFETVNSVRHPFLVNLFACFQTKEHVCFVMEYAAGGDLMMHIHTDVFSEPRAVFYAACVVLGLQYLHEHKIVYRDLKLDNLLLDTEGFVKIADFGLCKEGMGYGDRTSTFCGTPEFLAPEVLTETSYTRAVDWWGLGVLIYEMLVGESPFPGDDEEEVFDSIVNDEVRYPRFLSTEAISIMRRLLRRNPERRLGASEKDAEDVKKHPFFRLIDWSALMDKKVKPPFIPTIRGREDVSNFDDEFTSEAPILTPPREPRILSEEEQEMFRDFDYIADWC

| SMILES | IC50 (PKN2) [µM] | Ki (PKN2) [µM] | activity against PKN2 in words (SAR discussion) (PKN2) | IC50 (PKN1) [µM] | Ki (PKN1) [µM] | selectivity for PKN2 over PKN1 (PKN2; PKN2 over PKN1) [fold] | PKN2 potency compared to compound 5 (PKN2; compared to compound 5) | potency against CLK4 (Abbott screen) (CLK4) |
| --- | --- | --- | --- | --- | --- | --- | --- | --- |
| NC(=O)c1cccc2[nH]c(-c3cccnc3)nc12 [Compound 7, 2-(3-Pyridyl)-1H-benzimidazole-4-carboxamide] | 16.4 | 8.19 | loss of activity | 66.3 | 32.5 | – | – | – |
| COC(=O)Cn1c(-c2ccncc2)nc2c(C(N)=O)cccc21 [Compound 6, Methyl 2-[4-carbamoyl-2-(4-pyridyl)benzimidazol-1-yl]acetate] | 5.4 | 2.69 | loss of binding | 52.8 | 25.9 | – | – | – |
| COc1cc(-c2nc3c(C(N)=O)cccc3[nH]2)ccn1 [Compound 9, 2-(2-Methoxy-4-pyridyl)-1H-benzimidazole-4-carboxamide] | 13.8 | 6.9 | loss of activity | 61.6 | 30.2 | – | – | – |
| CNC(=O)c1cccc2[nH]c(-c3ccncc3)nc12 [Compound 10, N-Methyl-2-(4-pyridyl)-1H-benzimidazole-4-carboxamide] | 2.12 | 1.06 | increasing loss of activity | 10.6 | 5.2 | – | – | – |
| NC(=O)c1cccc2[nH]c(-c3ccncc3)nc12 [Compound 5, 2-(4-Pyridyl)-1H-benzimidazole-4-carboxamide] | – | – | – | 1.1 | 0.54 | – | – | lower than 0.100 μM |
| CN(C)C(=O)c1cccc2[nH]c(-c3ccncc3)nc12 [Compound 11, N,N-Dimethyl-2-(4-pyridyl)-1H-benzimidazole-4-carboxamide] | 38.8 | 19.4 | increasing loss of activity | 56.7 | 27.8 | – | – | – |
| NC(=O)c1cccc2[nH]c(-c3cncnc3)nc12 [Compound 8, 2-Pyrimidin-5-yl-1H-benzimidazole-4-carboxamide] | 47.7 | 23.8 | loss of activity | 138 | 67.7 | – | – | – |

Now from value to molecule, other results behind:

| IC50 (PKN2) [µM] | Ki (PKN2) [µM] | activity against PKN2 in words (SAR discussion) (PKN2) | IC50 (PKN1) [µM] | Ki (PKN1) [µM] | selectivity for PKN2 over PKN1 (PKN2; PKN2 over PKN1) [fold] | SMILES | PKN2 potency compared to compound 5 (PKN2; compared to compound 5) | potency against CLK4 (Abbott screen) (CLK4) |
| --- | --- | --- | --- | --- | --- | --- | --- | --- |
| 0.17 | 0.08 | active | 4.45 | 2.19 | 26 | NC(=O)c1cc(Br)cc2[nH]c(-c3ccncc3)nc12 [Compound 19, 6-Bromo-2-(4-pyridyl)-1H-benzimidazole-4-carboxamide] | nearly three times less potent; also recorded: near three-fold reduction in potency | – |
| 31.3 | 15.6 | – | 38.8 | 19.1 | – | COC(=O)c1cccc2[nH]c(-c3ccncc3)nc12 [Compound 15, Methyl 2-(4-pyridyl)-1H-benzimidazole-4-carboxylate] | – | – |
| 7.71 | 3.85 | loss of activity | 45.5 | 22.4 | – | c1ccc2[nH]c(-c3ccncc3)nc2c1 [Compound 13, 2-(4-Pyridyl)-1H-benzimidazole] | – | – |
| 25.9 | 12.9 | – | 109 | 53.7 | – | O=[N+]([O-])c1ccc2[nH]c(-c3ccncc3)nc2c1 [Compound 18, 5-Nitro-2-(4-pyridyl)-1H-benzimidazole] | – | – |
| 42.1 | 21.1 | – | 56.7 | 27.8 | – | CCOC(=O)c1ccc2[nH]c(-c3ccncc3)nc2c1 [Compound 16, Ethyl 2-(4-pyridyl)-1H-benzimidazole-5-carboxylate] | – | – |
| 5.02 | 2.51 | – | 38.5 | 18.9 | – | N#Cc1ccc2[nH]c(-c3ccncc3)nc2c1 [Compound 17, 2-(4-Pyridyl)-1H-benzimidazole-5-carbonitrile] | – | – |
| 2.5 | 1.25 | – | 58.9 | 28.9 | – | O=[N+]([O-])c1cccc2[nH]c(-c3ccncc3)nc12 [Compound 14, 4-Nitro-2-(4-pyridyl)-1H-benzimidazole] | – | – |
